From patent publication US20180360766A1, “OVARIAN CANCER SPECIFICALLY TARGETED BIODEGRADABLE AMPHIPHILIC POLYMER, POLYMER VESICLE PREPARED THEREBY AND USE THEREOF” (BRIGHTGENE BIO-MEDICAL TECHNOLOGY CO., LTD., priority 2016, published 2018)
Counter-ions that a name gives are not always drawn.

Experiments:
A2780 cells = assay: Toxicity of drug-loaded vesicles to A2780 by MTT; assay type: cell-based; conditions: Homo sapiens; A2780, CPT.HCl, 4 h co-cultivation + 44 h; transferrin-CLPs with 30% transferrin
[1] = test system: A2780 subcutaneous ovarian cancer; assay: Antitumor effect, A2780 subcutaneous ovarian cancer; conditions: at 10th day
in vivo = conditions: Balb/C nude, mouse, 10 mg/kg

Compound `CCc1c2c(nc3ccc(OC(=O)N4CCC(N5CCCCC5)CC4)cc13)-c1cc3c(c(=O)n1C2)COC(=O)[C@]3(O)CC` [CPT.HCl, irinotecan hydrochloride] has an IC50 (A2780 cells) of 4.11 µg/mL and a body weight decrease [1] of 18%.
Work on `COc1cccc2c1C(=O)c1c(O)c3c(c(O)c1C2=O)C[C@@](O)(C(=O)CO)C[C@@H]3O[C@H]1C[C@H](N)[C@H](O)[C@H](C)O1` [DOX.HCl, doxorubicin hydrochloride] yielded a half-life (in vivo) of 16.2 min.
